The source of these data is ChEMBL document CHEMBL1201862, “PubChem BioAssay data set” (2004).

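Following 48 hours of exposure in 96-well plates, responses at five concentrations were used to interpolate endpoints linearly. GI50 = concentration required for 50% inhibition of growth.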 Calls of active or inactive are those of the source. No stated cut-off is given here; in the data, active = GI50 up to about 1.1 µM and inactive = higher.

Test systems include 786-0; A549; CCRF-CEM; HCC 2998; HCT-116; HOP-62; IGROV-1; MDA-MB-231; MDA-MB-435; Malme-3M; NCI-H460; NCI-H522; NCI/ADR-RES; OVCAR-4; PC-3; SF-268; SN12C; SNB-19; UO-31; Hs-578T.
What all share (assay): inhibition of tumour cell growth, NCI panel, 48 h

Turning to `O=C(O)CCC(NC(=O)c1ccc(Oc2nc3ccccc3nc2-c2ccccc2)cc1)C(=O)O` (stereo not drawn), the GI50 with 786-0, in the experiment with A549, in the experiment on CCRF-CEM, with HCC 2998, with HCT-116 and with HOP-62 was > 100 µM (inactive) each time. Also, the GI50 with IGROV-1, in the experiment on MDA-MB-231, in the experiment on MDA-MB-435, in the experiment on Malme-3M, in the experiment on NCI-H460 and in the experiment with NCI-H522 was > 100 µM (inactive) each time. For the same compound, the GI50 in the experiment on NCI/ADR-RES, in the experiment with OVCAR-4, in the experiment on PC-3, in the experiment with SF-268, with SN12C and in the experiment with SNB-19 was > 100 µM (inactive) throughout. Besides, the GI50 in the experiment on UO-31 is > 100 µM (inactive).
In the case of `CSc1nc2c(c(=O)[nH]1)N=C(c1ccc(Cl)cc1)CC(c1ccccc1)N2` (stereo not drawn), the GI50 is 15.7 µM (inactive) with 786-0; 13.6 µM (inactive) in the experiment on A549; 17.1 µM (inactive) in the experiment on CCRF-CEM; 15.5 µM (inactive) in the experiment with HCC 2998; 21.3 µM (inactive) in the experiment with HCT-116; 17.9 µM (inactive) in the experiment on HOP-62. Moreover, the GI50 was 15.5 µM (inactive) in the experiment on IGROV-1; 16.6 µM (inactive) in the experiment on MDA-MB-231; 17.9 µM (inactive) in the experiment on MDA-MB-435; 19.5 µM (inactive) in the experiment on Malme-3M; 14.5 µM (inactive) in the experiment on NCI-H522; 14.5 µM (inactive) in the experiment with NCI/ADR-RES. Also, the GI50 with OVCAR-4 was 11.5 µM (inactive); with PC-3 it was 19 µM (inactive); in the experiment on SN12C it was 16.4 µM (inactive); with SNB-19, 15.2 µM (inactive); in the experiment on UO-31, 13.9 µM (inactive).
On to `COc1cc2c(cc1C)NC(=O)/C2=C\c1ccncc1`, for which the GI50 in the experiment on 786-0 is 5.35 µM (inactive); in the experiment with A549, 15.3 µM (inactive); with CCRF-CEM, 2.75 µM (inactive); in the experiment on HCC 2998, 12.3 µM (inactive); in the experiment on HCT-116, 2.34 µM (inactive); in the experiment with HOP-62, 6.97 µM (inactive). Further, the GI50 was 3.6 µM (inactive) in the experiment on Hs-578T; 2.43 µM (inactive) in the experiment with IGROV-1; 4.14 µM (inactive) in the experiment on MDA-MB-435; 15.5 µM (inactive) in the experiment on Malme-3M; 17.7 µM (inactive) with NCI-H460; 2.94 µM (inactive) in the experiment on NCI-H522. Also, the GI50 in the experiment on NCI/ADR-RES is 3.58 µM (inactive); with OVCAR-4, > 100 µM (inactive); in the experiment with PC-3 it was 6.55 µM (inactive); in the experiment on SF-268 it was 3.83 µM (inactive); in the experiment with SN12C, 6.15 µM (inactive); in the experiment with SNB-19, 5.2 µM (inactive). The GI50 in the experiment on UO-31 is 4.1 µM (inactive).
In the case of `CC(C)(C)OC(=O)NCCNCCNc1ccccc1`, the GI50 in the experiment on 786-0, in the experiment on A549, with CCRF-CEM, in the experiment on HCC 2998, in the experiment on HCT-116 and in the experiment on HOP-62 was > 100 µM (inactive) each time. Moreover, the GI50 in the experiment with IGROV-1, in the experiment on MDA-MB-231, in the experiment with MDA-MB-435, in the experiment on Malme-3M, in the experiment on NCI-H460 and with NCI-H522 was > 100 µM (inactive) in each case. Moreover, the GI50 in the experiment on NCI/ADR-RES, in the experiment on OVCAR-4, with PC-3, in the experiment on SN12C, with SNB-19 and with UO-31 was > 100 µM (inactive) each time.
In the case of `O=C1Nc2ccccc2/C1=N/NC(=S)N1CCCCC1`, the GI50 was 0.301 µM (active) with 786-0; 0.428 µM (active) in the experiment with A549; 1.27 µM (inactive) in the experiment with HCC 2998; 0.216 µM (active) with HCT-116; 0.3 µM (active) with HOP-62; 0.138 µM (active) in the experiment with IGROV-1. Besides, the GI50 in the experiment on MDA-MB-231 is 0.393 µM (active); in the experiment on MDA-MB-435, 1.36 µM (inactive); in the experiment with Malme-3M, 0.234 µM (active); in the experiment on NCI-H460, 0.0841 µM (active); with NCI-H522, 2.79 µM (inactive); in the experiment on NCI/ADR-RES, 0.0415 µM (active). Besides, the GI50 in the experiment with OVCAR-4 is 1.53 µM (inactive); in the experiment on PC-3 it was 0.337 µM (active); with SF-268 it was 0.493 µM (active); in the experiment with SN12C it was 2.17 µM (inactive); in the experiment with SNB-19 it was 1.98 µM (inactive); in the experiment with UO-31, 0.592 µM (active).
With `NS(=O)(=O)c1nnc(NSc2ccc([N+](=O)[O-])cc2)s1`, the GI50 in the experiment with 786-0, in the experiment on A549, in the experiment on HCC 2998, with HCT-116, with HOP-62 and in the experiment with Hs-578T was > 100 µM (inactive) throughout. For the same compound, the GI50 is > 100 µM (inactive) with MDA-MB-231; > 100 µM (inactive) in the experiment on MDA-MB-435; > 100 µM (inactive) with Malme-3M; > 100 µM (inactive) in the experiment with NCI-H460; 23.7 µM (inactive) in the experiment on NCI-H522; > 100 µM (inactive) in the experiment on NCI/ADR-RES. Besides, the GI50 in the experiment on OVCAR-4 is 48.9 µM (inactive); in the experiment on SF-268 it was > 100 µM (inactive); in the experiment with SN12C, > 100 µM (inactive); in the experiment on SNB-19, > 100 µM (inactive); in the experiment with UO-31, > 100 µM (inactive).
Turning to `C/C=C/[C@@]1(OC(=O)c2ccccc2)C[C@@H]2CCCC[C@@H]21`, the GI50 with 786-0 was 17.7 µM (inactive); with A549, 18.5 µM (inactive); in the experiment on CCRF-CEM, 18.3 µM (inactive); in the experiment on HCC 2998, 21.1 µM (inactive); with HCT-116, 16 µM (inactive); in the experiment on HOP-62, 15.5 µM (inactive). For the same compound, the GI50 in the experiment with Hs-578T is 13.8 µM (inactive); with IGROV-1, 17 µM (inactive); with MDA-MB-231, 20.6 µM (inactive); in the experiment with Malme-3M, 17.5 µM (inactive); with NCI-H460, 18.4 µM (inactive); with NCI-H522, 15.7 µM (inactive). For the same compound, the GI50 with NCI/ADR-RES was 20.5 µM (inactive); in the experiment on OVCAR-4, 17 µM (inactive); with PC-3, 20 µM (inactive); in the experiment on SF-268, 17.1 µM (inactive); in the experiment on SN12C it was 17.5 µM (inactive); in the experiment on SNB-19 it was 17.3 µM (inactive). Besides, in the experiment with UO-31, the GI50 was 11 µM (inactive).
For the compound `Cc1ccccc1C(O)(c1nccn1C)c1nccn1C`, the GI50 in the experiment with 786-0, in the experiment with A549, with CCRF-CEM, with HCC 2998, with HCT-116 and in the experiment on HOP-62 was > 100 µM (inactive) throughout. The GI50 with Hs-578T, with IGROV-1, with MDA-MB-435, with Malme-3M, in the experiment with NCI-H460 and with NCI-H522 was > 100 µM (inactive) in each case. Moreover, the GI50 with NCI/ADR-RES, with OVCAR-4, in the experiment on PC-3, with SF-268, in the experiment with SN12C and with SNB-19 was > 100 µM (inactive) each time. Moreover, the GI50 in the experiment on UO-31 is > 100 µM (inactive).
Regarding `Nc1nc(N)c2cc(Sc3cccc(C(F)(F)F)c3)ccc2n1` [WR-159412], the GI50 is 0.624 µM (active) with 786-0; 0.367 µM (active) in the experiment on A549; 0.53 µM (active) with CCRF-CEM; 1.39 µM (inactive) in the experiment on HCC 2998; 0.237 µM (active) with HCT-116; 2.12 µM (inactive) in the experiment on HOP-62. The GI50 with Hs-578T was 2.66 µM (inactive); with IGROV-1, 0.708 µM (active); in the experiment on MDA-MB-231 it was 0.364 µM (active); in the experiment on MDA-MB-435 it was 0.662 µM (active); in the experiment on Malme-3M, 1.02 µM (active); in the experiment with NCI-H460, 0.466 µM (active). Moreover, the GI50 in the experiment with NCI-H522 is 2.7 µM (inactive); with NCI/ADR-RES, 0.955 µM (active); in the experiment on OVCAR-4 it was 6.78 µM (inactive); in the experiment with SF-268 it was 2.22 µM (inactive); in the experiment with SN12C, 0.729 µM (active); in the experiment with SNB-19, 4.81 µM (inactive). Also, the GI50 with UO-31 is 1.2 µM (inactive).
Consider `NNc1ncnc2cccc(Cl)c12`, for which the GI50 in the experiment on 786-0, in the experiment on A549, in the experiment with CCRF-CEM, in the experiment with HCC 2998, in the experiment with HCT-116 and in the experiment with HOP-62 was > 100 µM (inactive) each time. The GI50 was > 100 µM (inactive) with Hs-578T; > 100 µM (inactive) in the experiment on IGROV-1; > 100 µM (inactive) in the experiment on MDA-MB-231; 2.02 µM (inactive) in the experiment on Malme-3M; > 100 µM (inactive) in the experiment with NCI-H460; > 100 µM (inactive) in the experiment on NCI-H522. In addition, the GI50 in the experiment on NCI/ADR-RES, with OVCAR-4, in the experiment on PC-3, with SF-268, in the experiment on SN12C and with SNB-19 was > 100 µM (inactive) throughout. In the experiment on UO-31, the GI50 is > 100 µM (inactive).
`COc1c(Cl)cc(NC(=S)C#N)cc1Cl`: the GI50 with 786-0 is 28.3 µM (inactive); with A549, 23.4 µM (inactive); in the experiment with CCRF-CEM it was > 53.8 µM (inactive); in the experiment with HCC 2998 it was 15.9 µM (inactive); in the experiment with HCT-116 it was 16.4 µM (inactive); in the experiment with HOP-62, 24.5 µM (inactive). Further, the GI50 was 27.1 µM (inactive) with IGROV-1; 17 µM (inactive) in the experiment with MDA-MB-231; 25 µM (inactive) in the experiment with MDA-MB-435; 20.6 µM (inactive) in the experiment with Malme-3M; 23.9 µM (inactive) with NCI-H460; 19.4 µM (inactive) in the experiment with NCI-H522. Besides, the GI50 with NCI/ADR-RES is 22.1 µM (inactive); in the experiment on OVCAR-4, 29.2 µM (inactive); with PC-3, 24.3 µM (inactive); with SF-268 it was 31.2 µM (inactive); in the experiment on SN12C, 20.1 µM (inactive); in the experiment on SNB-19, 32.9 µM (inactive). For the same compound, the GI50 with UO-31 is 22.3 µM (inactive).
